The values that follow come from US4780420A (Yale University, priority 1985, dated 1988).

Where two headings read alike, the source gives them in different places.

Series [1] concerns the target T1, progesterone receptor (Oryctolagus cuniculus, UniProt P06186).
T1 construct: On the fifth day the uterus was excised, weighed and homogenized; from tissue
T1 sequence (P06186 1-930): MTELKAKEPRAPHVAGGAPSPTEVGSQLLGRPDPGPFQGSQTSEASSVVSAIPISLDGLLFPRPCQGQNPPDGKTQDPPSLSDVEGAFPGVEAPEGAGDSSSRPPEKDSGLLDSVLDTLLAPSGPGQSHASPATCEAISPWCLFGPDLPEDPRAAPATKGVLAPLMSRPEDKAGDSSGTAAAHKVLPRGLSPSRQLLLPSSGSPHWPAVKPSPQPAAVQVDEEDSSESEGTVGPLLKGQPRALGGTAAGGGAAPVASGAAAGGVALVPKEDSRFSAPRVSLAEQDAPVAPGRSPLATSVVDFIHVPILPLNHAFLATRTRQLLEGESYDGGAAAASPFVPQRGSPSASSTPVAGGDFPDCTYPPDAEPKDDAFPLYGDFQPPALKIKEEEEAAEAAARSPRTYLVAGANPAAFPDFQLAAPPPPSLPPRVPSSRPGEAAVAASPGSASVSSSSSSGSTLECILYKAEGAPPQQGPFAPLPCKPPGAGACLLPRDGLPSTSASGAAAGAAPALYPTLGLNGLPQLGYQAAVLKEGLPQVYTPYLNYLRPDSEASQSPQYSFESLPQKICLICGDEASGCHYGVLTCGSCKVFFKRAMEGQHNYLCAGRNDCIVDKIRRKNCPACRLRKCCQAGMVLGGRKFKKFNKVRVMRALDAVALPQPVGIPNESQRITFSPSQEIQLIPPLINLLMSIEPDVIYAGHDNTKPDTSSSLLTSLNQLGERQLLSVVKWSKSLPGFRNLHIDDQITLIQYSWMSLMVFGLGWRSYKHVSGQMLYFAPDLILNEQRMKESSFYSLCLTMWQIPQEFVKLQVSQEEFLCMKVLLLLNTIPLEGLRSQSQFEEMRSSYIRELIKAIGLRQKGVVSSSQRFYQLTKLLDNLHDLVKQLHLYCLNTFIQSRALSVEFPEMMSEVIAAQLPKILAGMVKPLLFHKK
The experiment in a line: Competition of a series of steroids with [^3 H]R5020 and [^125 I]EVNT (specificity). The note with it: for competing for sites with either ligand (in words): [^3 H]R5020 and [^125 I]EVNT; for activity at 0.003 µM: competitor 3 nM; for activity at 0.1 µM: competitor 100 nM. It is filed as binding, rabbit. As to the method: To be sure that [^125 I]EVNT and [^3 H]R5020 bound with similar specificities, experiments were performed in which a series of steroids competed with the two differently labelled ligands.
Bo is dpm specifically bound when
B is dpm bound in the presence of […]

In series [2] the target is T1, progesterone receptor. The series can be described thus: Saturation and Scatchard analysis of the progesterone receptor with [^125 I]EVNT and [^3 H]R5020. It is filed as binding, rabbit. The note with it: for slope and intercept of the Scatchard plots, i.e. -Ka and the binding capacity (in words): FIG. 3, R5020 vs EVNT.
For series [3], the target named is T1, progesterone receptor. The experiment in a line: Progesterone receptor assay: competition with [^3 H]R5020 binding. Set-up: species or system rabbit. Here is the method:
On the fifth day the uterus was excised, weighed and homogenized at 0° C. in 1.5 volumes of iced buffer containing: 1 mM dithiothreitol, 0.15 mM Na2 EDTA, 30% glycerol, 20 mM sodium molybdate, 10 mM Tris/HCl, pH 7.4 (4° C.). Homogenization was accomplished with three 10 second bursts of Polytron homogenizer. The homogenate was centrifuged at 3,000×g for 10 min. and the resulting supernatant was centrifuged at 100,000×g for 1 hour. The final supertant (cytosol) was diluted with homogenization buffer to afford 20-40% binding of a trace of [^3 H]R5020 (90 Ci/mMol), 10,000 dpm, and 50 μl of the appropriate radioinert compound. Non-specific binding was evaluated in tubes containing 2 μM R5020. After incubating at 4° C. overnight, free and bound steroids were separated by the addition of 100 μl of a stirred suspension of charcoal (5 mg/ml) in 10 mM Tris-HCl, pH 7.4 (4° C.), 0.15 mM Na2 EDTA. After mixing and standing on ice for 10 min., the tubes were centrifuged at 1500×g for 10 mins. and the "bound" radioactivity, in a 0.15 ml aliquot of the supernatant, was measured in a liquid scintillation counter.
In FIG. 1, Bo is the specifically bound [^3 H]R5020 alone and b is the specifically bound [^3 H]R5020 in the presence of the designated concentration of competitor. […] In Table 1 below, the values in parenthesis are the number of complete experiments which were conducted; the binding constants are means±SEM.

Series [4] is described as follows: Storage stability by thin layer chromatography. It is filed as physicochemical. The conditions noted are these: 4° C., 10% ethanol in benzene. As to the method:
The radioactive product, [^125 I]EVNT, was stored at 4° C. in the alcoholic benzene solution.

Another series concerns estrogen receptor. The conditions noted are these: Hansen et al., Jogoda et al.; cited from earlier work.
For series [5] the following is noted: in vivo; cited from earlier work.
[6] abbreviates: read-out: B/Bo × 10^2, radioligand [^3 H]R5020 (0.67 nM).
The mark [7] stands for this setting: read-out: B/Bo × 10^2, radioligand [^125 I]EVNT (0.18 nM).
Setting [8] is: estrogen stimulated rabbit uterine cytosol, five experiments.
Where [9] appears, read: radioligand [^3 H]R5020 (0.67 nM), read-out: B/Bo × 10^2.
Where [10] appears, read: radioligand [^125 I]EVNT (0.18 nM), read-out: B/Bo × 10^2.

For `C[C@]12CC[C@H]3[C@@H](CCC4=CC(=O)CC[C@@H]43)[C@@H]1CC[C@@]2(O)/C=C/I` [EVNT, E-17α-(2-iodovinyl)-4-estrene-17β-ol-3-one], the “competing for sites with either ligand (in words)” value (“competing for sites” below) on progesterone receptor [1] is listed as “substantial competition”. Besides, at progesterone receptor [1] (setting [6]), the activity at 0.003 µM was 42% and the activity at 0.1 µM was determined as 0%. For the same compound, at progesterone receptor [1] (setting [7]), the activity at 0.003 µM stood at 74% and the activity at 0.1 µM is 0%. On progesterone receptor [2], the “slope and intercept of the Scatchard plots, i.e. -Ka and the binding capacity (in words)” value was “almost the same”. The “level of non-specific binding (in words)” value on progesterone receptor [2] (FIGS. 2A and 2B) is “satisfactory and almost identical to that seen with R5020”. In addition, at progesterone receptor [3], the Ki is 4.26 ± 0.94 nM and the “binding to the progesterone receptor (in words)” value is “bind the progesterone receptor with high affinity”.

As to `C[C@]12CC[C@H]3[C@@H](CCC4=CC(=O)CC[C@@H]43)[C@@H]1CC[C@@]2(O)/C=C/[125I]` [[^125 I]EVNT], the “stable for a period of at least” value in series [4] was 2-3 months. The compound further gave a Kd on progesterone receptor [2] of 1.05 nM. Moreover, the binding capacity at progesterone receptor [2] (setting [8]) is 921 pM.

`C[C@]12CC[C@H]3[C@@H](CCC4=CC(=O)CC[C@@H]43)[C@@H]1CC[C@@]2(O)/C=C\I` [ZVNT, Z-17α-(2-iodovinyl)-4-estrene-17β-ol-3-one] yielded a Ki on progesterone receptor [3] of 1.81 nM. Besides, the “binding to the progesterone receptor (in words)” value at progesterone receptor [3] (listed as Z 17α-(2-iodovinyl) analog of 19-nortestosterone) is on record as “bind the progesterone receptor with high affinity”; at progesterone receptor [3] (listed as Z isomer), “somewhat greater affinity for the progesterone receptor”.

As to `CCC(=O)[C@@]1(C)CC[C@H]2[C@@H]3CCC4=CC(=O)CCC4=C3CC[C@@]21C` [[^3 H]R5020, [^3 H]17α,21-dimethyl-19-nor-4,9-pregnadiene-3,20-dione], on progesterone receptor [2] (setting [8]), the binding capacity was found to be 666 ± 198 pM. Also, the Kd at progesterone receptor [2] (estrogen stimulated rabbit uterine cytosol, five experiments, ± SEM, read-out: Association constant Ka (converted)) was 0.8 nM.

As to `C[C@]12CC[C@@H]3c4ccc(O)cc4CC[C@H]3[C@@H]1CC[C@@]2(O)/C=C/I` [E-17α-[2-iodovinyl]analogs of estradiol], the “binding to the estrogen receptor (in words)” value with estrogen receptor was “bind to the estrogen receptor”. For the same compound, the “concentration in estrogen target tissues (in words)” value in series [5] is “concentrate in estrogen target tissues”.

Take `C[C@]12CC[C@H]3[C@@H](CCC4=CC(=O)CC[C@@H]43)[C@@H]1C[C@@H](I)[C@@H]2O` [INT, 16α-Iodo-4-estrene-17β-ol-3-one]: on progesterone receptor [3], the Ki was 39.8 nM and the “binding to the progesterone receptor (in words)” value is listed as “bind the progesterone receptor with high affinity”.

For the compound `C[C@]12CC[C@H]3[C@@H](CCC4=CC(=O)CC[C@@]43C)[C@@H]1CC[C@@H]2O` [Testosterone], the “competing for sites” value on progesterone receptor [1] was “ineffective in competing for sites with either ligand”. The activity at 0.003 µM at progesterone receptor [1] (setting [6]) was 100%; at progesterone receptor [1] (setting [7]), 101%. For the same compound, the activity at 0.1 µM was 105% at progesterone receptor [1] (setting [6]) and 98% on progesterone receptor [1] (setting [7]).

In the case of `CC(=O)[C@H]1CC[C@H]2[C@@H]3CCC4=CC(=O)CC[C@]4(C)[C@H]3CC[C@]12C` [Progesterone], the “competing for sites” value at progesterone receptor [1] is on record as “substantial competition”. In addition, the activity at 0.003 µM came out at 94% on progesterone receptor [1] (setting [9]) and 91% at progesterone receptor [1] (setting [10]). The activity at 0.1 µM on progesterone receptor [1] (setting [9]) amounted to 37%; on progesterone receptor [1] (setting [10]), 22%.

Regarding `C[C@]12CCC(=O)C[C@@H]1CC[C@@H]1[C@@H]2CC[C@]2(C)[C@@H](O)CC[C@@H]12` [5α-DHT, 5α-dihydrotestosterone], the “competing for sites” value at progesterone receptor [1] is listed as “ineffective in competing for sites with either ligand”. In addition, at progesterone receptor [1] (setting [6]), the activity at 0.003 µM is 101% and the activity at 0.1 µM is 95%. Further, at progesterone receptor [1] (setting [7]), the activity at 0.003 µM amounted to 100% and the activity at 0.1 µM turned out to be 91%.

Consider `CCC(=O)[C@@]1(C)CC[C@H]2[C@@H]3CCC4=CC(=O)CCC4=C3CC[C@@]21C` [R5020, 17α,21-dimethyl-19-nor-4,9-pregnadiene-3,20-dione], for which the “competing for sites” value at progesterone receptor [1] is “substantial competition”. On progesterone receptor [1] (setting [9]), the activity at 0.003 µM turned out to be 34% and the activity at 0.1 µM came out at 0%. On progesterone receptor [1] (setting [10]), the activity at 0.003 µM is 74% and the activity at 0.1 µM amounted to 0%. For the same compound, the “slope and intercept of the Scatchard plots, i.e. -Ka and the binding capacity (in words)” value on progesterone receptor [2] is given as “almost the same”. At progesterone receptor [3] (R5020, footnote *Kd, rabbit uterine cytosol, mean±SEM (5 experiments)), this compound had a Kd of 1.05 ± 0.19 nM.

As for `C[C@]12CCC(=O)C=C1CC[C@@H]1[C@@H]2[C@@H](O)C[C@@]2(C)[C@H]1CC[C@]2(O)C(=O)CO` [Cortisol], at progesterone receptor [1], the “competing for sites” value is “ineffective in competing for sites with either ligand”. At progesterone receptor [1] (setting [9]), the activity at 0.003 µM is 98% and the activity at 0.1 µM was determined as 106%. At progesterone receptor [1] (setting [10]), the activity at 0.003 µM was determined as 100% and the activity at 0.1 µM was found to be 102%.

On to `C[C@@H]1C[C@H]2[C@@H]3CCC4=CC(=O)C=C[C@]4(C)[C@@]3(F)[C@@H](O)C[C@]2(C)[C@@]1(O)C(=O)CO` [Dexamethasone], for which the “competing for sites” value on progesterone receptor [1] is “ineffective in competing for sites with either ligand”. Besides, at progesterone receptor [1] (setting [9]), the activity at 0.003 µM is 103% and the activity at 0.1 µM worked out at 101%. Moreover, on progesterone receptor [1] (setting [10]), the activity at 0.003 µM is 96% and the activity at 0.1 µM was found to be 100%.
